Experimental data as given in patent US11903998B2, “Compositions and methods of treating cancer using lipid agonists and receptors thereof” (Forsyth Dental Infirmary for Children, priority 2016, dated 2024).
Where two headings read alike, the source gives them in different places.

Columns and labels:
[1] = tested on: lung cancer; assay: LXA4 and xenograft model of lung cancer; type: in vivo
[2] = tested on: COX-2; assay: COX-2 expression, LXA4 xenograft model of lung cancer; type: in vivo; conditions: LXA4-treatment group
[3] = tested on: LA-P0297 lung cancer cells; type: in vivo, mice; conditions: for No tumor / Tumor developed (number of mice): total 6; for No tumor / Tumor developed (number of mice) / Necrosis: RvE1 pre-treatment; for Necrosis: cell wraps: Started on 18th day
Excerpt: ERV1-transgenic mice (Tg) were engineered as previously described (Gao et al., 2013). In brief, the full-length of hCD11b promoter cDNA was cloned upstream of the full-length chemR23 cDNA (GenBank accession: www.ncbi.nlm.nih.gov/nuccore/NM_004072). For genotyping, genomic DNA was collected from ear punch biopsies of mice and screened by PCR with primers directed to mouse ERV1 (forward primer 5′-CTCGGTCTCCTAGGCAAC-3′) and human ERV1 (forward primer 5′-GTCTTCCTCCCAATCCAT-3′). The mouse and human ERV1 amplicons share the same reverse primer (5′-TAGAAAGCCAGGACCCAG-3′). FVB Wild type female mice (Wt) were purchased from Jackson Laboratories (Bar Harbor, ME). All animals were housed under specific pathogen-free conditions, received standard laboratory chow diet and water ad libitum. All animal experiments were approved by the Institutional Animal Care and Use Committee (IACUC) at the Forsyth Institute and were performed in conformance to the standards of the Public Health Service Policy on Humane Care and Use of Laboratory Animals. The animals were acclimatized before being used in the experimental study.
After one week of acclimatization, all animals received an injection of 1×10^6 LA-P0297 lung cancer cells subcutaneous in the right flank. Both Wt (n=18) and Tg (n=18) animals were randomly divided into 3 experimental groups: un-treated controls; 100 ng of RvE1 diluted in PBS injected intraperitoneal daily for the first 6 days and weekly thereafter for 3 weeks; vehicle, which was 5% ethanol diluted in PBS. RvE1 was stored in 100% ethanol and diluted in PBS immediately before use. RvE1 and vehicle were administered 30 minutes before the injection of cancer cells. Animals were checked routinely for body weight and growth of tumors on the skin. Tumor volume was measured using a Vernier caliper (Mitutoyo, Japan) and calculated using the following formula: V=½(L×W^2) where L=length and W=width. After 28 days, the animals were euthanized by CO2 asphyxia; tumor tissues were collected and stored for histological and molecular analyses.

[4] = tested on: LA-P0297 lung cancer cells; assay: Histological analysis of tumor tissue (hematoxylin and eosin); type: in vivo, mice
Excerpt: To examine the microscopic alterations in the tumor tissue, tissues were fixed in 10% formalin, paraffin embedded, sectioned (5 μm) and stained with hematoxylin and eosin. Images were photographed and enlarged for evaluation.

[5] = tested on: Ki67; assay: Immunohistochemistry of tumor tissue, proliferation marker; type: in vivo, mice
Description: (§1) In order to identify tumor cell proliferation and angiogenesis markers, the expression of Ki67 as a marker of proliferation and CD31, CD34 and VEGF as markers of vascularization was analyzed by immunohistochemistry. Briefly, 5 μm thick sections were de-paraffinized and rehydrated with serial alcohol solutions. Antigen retrieval was performed by incubating the sections in 10 mM sodium citrate (pH 6.0) in a microwave oven first for 5 min at 720 W, then 3 min at 450 W and finally 2 min at 180 W. Endogenous peroxidase activity was quenched by incubating the slides with 3% H2O2 (in methanol) for 20 minutes at 4° C. followed by blocking with 2% BSA for 30 minutes at room temperature. The sections were then incubated with antibodies to Ki67, CD31, CD34 and VEGF (1:100 dilution) overnight at 4° C. in a humidified chamber. Sections were incubated with ABC reagent VACTASTAIN Elite ABC Standard Kit (PK-6100). The immune reactions were visualized using 3,3-diaminobenzidine tetra hydrochloride (DAB). DAB-stained slides were counterstained lightly with hematoxylin. Slides were dehydrated and mounted with Permount for analysis. Images were acquired and analyzed using the Nikon Eclipse 80i microscope (Japan) and Northern Eclipse imaging Elements-D (NIS-D) software. The results are expressed as percent of total positive cells.

[6] = tested on: CD31; assay: Immunohistochemistry of tumor tissue, vascularization marker CD31; type: in vivo; conditions: both Wt and Tg mice vs respective controls and vehicle groups
Description: as §1

[7] = tested on: CD34; assay: Immunohistochemistry of tumor tissue, vascularization marker CD34; type: in vivo, mice
Description: as §1

[8] = tested on: IL-1α; assay: Multiplex bead array cytokine level in tumor tissue; type: in vivo; conditions: Wt mice, RvE1 pre-treatment, mean ± SEM
[9] = tested on: IL-12; assay: as above; type: in vivo; conditions: Wt mice, RvE1 pre-treatment, mean ± SEM
Description: (§2) Inflammation is driven by soluble factors that are produced by tumor cells and by the cells recruited to the tumor microenvironment. […] Cytokine levels were measured using a multiplex bead array assay kit for Luminex purchased from Millipore to measure the following cytokines: G-CSF, IL-10, IL-6, IL-8, IL-12, TNF □, as per the manufacturer's instructions using a Luminex 100 instrument. Appropriate dilutions of the samples in assay diluent were made as required. Each sample was assayed in duplicate and cytokine standards supplied by the manufacturer were used to calculate the concentrations in the samples. Cytokine levels are expressed in pg/ml.

[10] = tested on: IL-6; assay: as above; type: in vivo; conditions: Wt mice, RvE1 pre-treatment, mean ± SEM
Description: as §2

[11] = tested on: G-CSF; assay: as above; type: in vivo, mice; conditions: RvE1 pre-treatment, mean ± SEM
Description: as §2

[12] = tested on: IL-8; assay: as above; type: in vivo, mice; conditions: RvE1 pre-treatment, mean ± SEM
Description: as §2

[13] = tested on: TNF-α; assay: as above; type: in vivo, mice; conditions: RvE1 pre-treatment, mean ± SEM
Description: as §2

[14] = tested on: Ang1; assay: Quantitative mRNA expression in tumor tissue (qPCR); type: in vivo, mice; conditions: p<0.001
Description: (§3) In order to analyze the impact of RvE1 on inflammation and angiogenesis, the expression of NF-κB, COX-2, VEGF, Ang-1 and Ang-2 was examined by quantitative real-time PCR. Total cellular RNA was extracted from tumor tissue (stored in RNAlater solution) using TriZol reagent. Quantification of RNA was determined using NanoDrop 1000 (Thermo Fisher Scientific, Wilmington, DE). RNA samples were stored at −80° C. until use. The first-strand cDNA was synthesized with High Capacity cDNA Archive kit (Applied Biosystems, Foster City, CA, USA) according to the manufacturer's instructions. For quantitative RT-PCR analysis, oligonucleotides for NF-κB, COX-2, VEGF, Ang-1, Ang-2 and GAPDH were chosen from predesigned assays. Thermal cycling included initial steps at 50° C. for 2 min and at 95° C. for 10 min, followed by 40 cycles at 95° C. for 15 s and at 60° C. for 1 min. The fluorescence of the double-stranded products was monitored in real time. The cDNA was amplified and quantified using Sequence Detection System (SDS) 7000 (Applied Biosystems). The 2^(ΔΔCt) (Ct value of target gene minus Ct value of housekeeping gene) method was used to calculate relative quantity fold-change. GAPDH was used as the housekeeping gene. The data is from 3 independent experiments performed in triplicate.

[15] = tested on: COX-2; assay: as above; type: in vivo, mice; conditions: p<0.001
Description: as §3

[16] = tested on: NF-κB; assay: as above; type: in vivo, mice; conditions: p<0.001
Description: as §3

[17] = tested on: VEGF; assay: VEGF expression in tumor tissue (immunohistochemistry and PCR); type: in vivo, mice; conditions: p<0.001
Description: as §1
In order to analyze the impact of RvE1 on inflammation and angiogenesis, the expression of NF-κB, COX-2, VEGF, Ang-1 and Ang-2 was examined by quantitative real-time PCR. […] Quantification of RNA was determined using NanoDrop 1000 (Thermo Fisher Scientific, Wilmington, DE). […] For quantitative RT-PCR analysis, oligonucleotides for NF-κB, COX-2, VEGF, Ang-1, Ang-2 and GAPDH were chosen from predesigned assays. […] The fluorescence of the double-stranded products was monitored in real time. The cDNA was amplified and quantified using Sequence Detection System (SDS) 7000 (Applied Biosystems). The 2^(ΔΔCt) (Ct value of target gene minus Ct value of housekeeping gene) method was used to calculate relative quantity fold-change. […]

[18] = tested on: Ang2; assay: Quantitative mRNA expression in tumor tissue (qPCR); type: in vivo; conditions: both Wt and Tg mice vs controls and vehicle groups, p<0.001
Description: as §3

[19] = tested on: lung cancer; assay: Orthotopic model of lung cancer, RvE1; type: in vivo
[20] = tested on: COX2; assay: COX2 expression, orthotopic model of lung cancer; type: in vivo
[21] = tested on: COX-2; assay: COX-2 expression, RvE1 and cisplatin xenograft model; type: in vivo, mice
[22] = tested on: NF-κB; assay: NF-κB expression, RvE1 and cisplatin xenograft model; type: in vivo, mice
[23] = tested on: lung cancer; conditions: mouse, in vivo
[24] = tested on: lung cancer; assay: RvE1 and cisplatin in xenograft model of lung cancer
[25] = Tg mice vs control and vehicle animals
[26] = Wt mice vs control and vehicle animals
[27] = RvE1 added to cisplatin, WT and TG animals
[28] = cisplatin, WT and TG mice, p<0.001

Structure (SMILES): CCCCC[C@H](O)/C=C/C=C\C=C\C=C\[C@@H](O)[C@@H](O)CCCC(=O)O [LXA4, lipoxin A4]
- Necrosis, center of the tumor tissue ([1]; LXA4-treated group vs WT-vehicle control, 4 weeks): highly necrotic
- Inflammatory infiltration ([1]; LXA4 group vs vehicle): no sign of inflammatory infiltration
- Tumor volume ([1]; LXA4 vs vehicle group over 4 weeks): reduced the tumor volume significantly
- Body weight ([1]; LXA4 vs vehicle, 4 weeks): No change
- COX-2 expression [2]: significantly decreased

Structure (SMILES): CC[C@@H](O)/C=C/C=C\C[C@@H](O)/C=C/C=C/C=C\[C@@H](O)CCCC(=O)O [RvE1, Resolvin E1]
- Necrosis seen on the surface of tumors, from day ([3]; RvE1 treated groups): 19 days
- No tumor ([3]; Tg mice): 3
- Tumor developed (number of mice) ([3]; Tg mice): 3
- Necrosis ([3]; Tg mice): Started
- No tumor ([3]; Wt mice): Weak
- Tumor developed (number of mice) ([3]; Wt mice): 4
- Necrosis ([3]; Wt mice): Started
- Tumor size ([3]; both Wt and Tg animals vs vehicle and control groups, p<0.001): reduced significantly
- Body weight ([3]; mouse, in vivo): no significant difference
- Signs of toxicity (behavioral changes; eating, drinking habits and movement) ([3]; mouse, in vivo): None of the animals exhibited any signs of toxicity
- Tumor appearance ([3]; vs tumors of animals not treated with RvE1 (solid and rigid)): very soft and pulpous
- Microscopic alterations of tumor tissue ([4]; RvE1-treated Wt and Tg animals): extensive necrosis
- Necrosis, RvE1 treated Tg mice compared to Wt mice ([4]; Tg vs Wt): more prominent
- Reduction in the expression of Ki67, RvE1 treated Tg mice compared to Wt mice treated with RvE1 ([5]; Tg vs Wt): significantly (p<0.01) higher
- Ki67-positive cells ([5]; both Wt and Tg groups vs vehicle and control groups): significant (p<0.001) reduction
- CD31 positive cells [6]: significantly (p<0.001) reduced
- CD34 positive cells ([7]; both Wt and Tg mice vs respective controls and vehicle groups): significantly (p<0.001) reduced
- Reduction of CD34 expression in tumor tissues, Tg animals vs Wt animals ([7]; p<0.01): significantly more
- IL-1α level in tumor tissue [8]: 177.94 ± 15.7 pg/mL
- IL-12 level in tumor tissue [9]: 46.73 ± 4.7 pg/mL
- IL-6 level in tumor tissue [10]: 52.06 pg/mL
- G-CSF level in tumor tissue ([11]; Tg mice): 1156.31 pg/mL
- G-CSF level in tumor tissue ([11]; Wt mice): 1624.28 ± 170.8 pg/mL
- IL-8 level in tumor tissue ([12]; Tg mice): 692.61 pg/mL
- IL-8 level in tumor tissue ([12]; Wt mice): 2629.41 ± 263.3 pg/mL
- TNF-α level in tumor tissue ([13]; Tg mice): 10.06 ± 2.1 ^¥¥ pg/ml
- TNF-α level in tumor tissue ([13]; Wt mice): 13.23 pg/mL
- Ang1 expression ([14]; both Wt and Tg mice vs controls and vehicle groups): significantly decreased
- Decrease in Ang1 expression, Tg mice compared to Wt animals [14]: more significant
- COX-2 mRNA decrease ([15]; Tg mice vs controls and vehicle groups): 8 fold
- COX-2 mRNA decrease ([15]; Wt mice vs controls and vehicle groups): 6 fold
- NF-κB expression reduction [16, 25]: 7.6 fold
- NF-κB expression reduction [16, 26]: 4 fold
- VEGF expression reduction [17, 25]: 7 fold
- VEGF expression reduction [17, 26]: 5 fold
- Decrease of VEGF expression, Tg mice compared to Wt mice treated with RvE1 [17]: more significant
- Ang2 expression [18]: significantly decreased
- Histological findings in lungs ([19]; RvE1 vs control groups): decreased tumor density, vascularization, and inflammatory infiltration with increased necrosis
- Number of nodules in the lung over 2 weeks ([19]; TG+RvE1 (TG control 8-10)): 3-5 nodules
- Survival over 2 weeks ([19]; TG+RvE1 (TG control 25%)): 80%
- Number of nodules in the lung over 2 weeks ([19]; WT+RvE1 (WT control 8-10)): 4-6 nodules
- Survival over 2 weeks ([19]; WT+RvE1 (WT control 25%)): 40%
- Reduction of the expression of COX2 ([20]; both groups (WT and TG)): 6 fold
- Reduction of expression (printed in the COX2 sentence) ([20]; only in the TG animals): 6-7 fold
- Suppression (reduction) of COX-2 expression compared to cisplatin alone [21, 27]: increased the suppression
- Suppression (reduction) of NF-κB expression compared to cisplatin alone [22, 27]: increased the suppression
- Signs of toxicity (behavioral changes; eating, drinking habits and movement) [23]: None of the animals exhibited any signs of toxicity
- Tumor volume compared to cisplatin alone ([24]; RvE1 added to cisplatin, both WT and TG animals, p<0.001): significantly and further reduced
- Tumor volume compared to the non-treated and WT groups ([24]; TG animals treated with cisplatin and additional RvE1): markedly reduced tumor volume

Structure (SMILES): N.N.[Cl][Pt][Cl] [cisplatin]
- COX-2 expression [21, 28]: reduced
- NF-κB expression [22, 28]: reduced
- Tumor volume ([24]; cisplatin): reduced tumor volume
- Decrease of tumor growth compared to control groups ([24]; cisplatin, both WT and TG groups): more than 10 fold
- Body weight ([24]; cisplatin-alone group): lost weight after the first 2 weeks
